In ChEMBL document CHEMBL4152229, “Synthesis and biological evaluation of 2,6-disubstituted-9H-purine, 2,4-disubstitued-thieno[3,2-d]pyrimidine and -7H-pyrrolo[2,3-d]pyrimidine analogues as novel CHK1 inhibitors” (Eur J Med Chem, 2018):
pIC50: −log10 of the molar value.

Experiments:
HT-29 [1] = assay: cells; settings: Homo sapiens, HT-29, 72 h
Description: Antiproliferative activity against human HT-29 cells after 72 hrs by MTS assay

[2] = target: T1, Serine/threonine-protein kinase Chk1 (Homo sapiens) (UniProt O14757); assay: Inhibition of CHK1 (unknown origin) at 10 uM using Cdc25 peptide as substrate preincubated for 30 mins followed by substrate addition and measured after 60 mins by ADP-Glo kinase assay
T1 sequence (whole entry): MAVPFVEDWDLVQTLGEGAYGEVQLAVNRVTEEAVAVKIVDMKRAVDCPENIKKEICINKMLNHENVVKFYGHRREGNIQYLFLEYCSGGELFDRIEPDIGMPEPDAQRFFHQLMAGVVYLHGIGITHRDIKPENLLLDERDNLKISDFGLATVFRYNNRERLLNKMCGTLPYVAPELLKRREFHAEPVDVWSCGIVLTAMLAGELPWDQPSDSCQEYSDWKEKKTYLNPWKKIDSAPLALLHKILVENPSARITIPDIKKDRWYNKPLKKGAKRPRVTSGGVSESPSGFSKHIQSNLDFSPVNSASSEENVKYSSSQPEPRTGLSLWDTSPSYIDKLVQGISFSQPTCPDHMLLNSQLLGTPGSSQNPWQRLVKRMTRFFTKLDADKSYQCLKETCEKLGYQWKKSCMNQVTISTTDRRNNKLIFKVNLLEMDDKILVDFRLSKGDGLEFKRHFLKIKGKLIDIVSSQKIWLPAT

HEK293 = assay: Antiproliferative activity against human HEK293 cells after 72 hrs by MTS assay; assay type: functional; settings: HEK293, 72 h
[3] = target: T2, Serine/threonine-protein kinase Chk1 (Homo sapiens, UniProt O14757); assay: Inhibition of CHK1 (unknown origin) using Cdc25 peptide as substrate preincubated for 30 mins followed by substrate addition and measured after 60 mins by ADP-Glo kinase assay
T2 sequence (O14757 whole entry): T1 sequence (whole entry)

HT-29 [4] = assay: Cell cycle arrest in human HT-29 cells assessed as accumulation at G1 phase at 25 nM after 48 hrs by propidium iodide/RNase staining-based flow cytometric analysis (reference value: 62.1%); assay type: functional
HT-29 [5] = assay: Cell cycle arrest in human HT-29 cells assessed as accumulation at S phase at 25 nM after 48 hrs by propidium iodide/RNase staining-based flow cytometric analysis (reference value: 30.9%); assay type: functional
HT-29 [6] = assay: Cell cycle arrest in human HT-29 cells assessed as accumulation at G2 phase at 25 nM after 48 hrs by propidium iodide/RNase staining-based flow cytometric analysis (reference value: 7.0%); assay type: functional

## c1ccc(Nc2nc(NC3CCOCC3)c3nc[nH]c3n2)cc1
HT-29 [1]
  GI50: 80.3 µM
[2]
  inhibition: 61.5%
HEK293
  GI50: 31.5 µM

## c1ccc(Nc2nc(N3CCOCC3)c3nc[nH]c3n2)cc1
HT-29 [1]
  GI50: > 100 µM
[2]
  inhibition: 82.4%
HEK293
  GI50: 60.2 µM
[3]
  pIC50: 5.59

## COc1cc(Nc2nc(N3CCOCC3)c3cc[nH]c3n2)cc(OC)c1OC
HT-29 [1]
  GI50: 50.4 µM
[2]
  inhibition: 26.9%
HEK293
  GI50: 58.7 µM

## Fc1ccc(Nc2nc(NC3CCOCC3)c3nc[nH]c3n2)cc1
HT-29 [1]
  GI50: 86.9 µM
[2]
  inhibition: 37.2%
HEK293
  GI50: > 100 µM

## Cc1cccc(Nc2nc(N3CCOCC3)c3nc[nH]c3n2)c1
HT-29 [1]
  GI50: 67.6 µM
[2]
  inhibition: 85.2%
HEK293
  GI50: 40.5 µM
[3]
  pIC50: 5.90

## FC(F)(F)c1cccc(Nc2nc(N3CCOCC3)c3nc[nH]c3n2)c1
HT-29 [1]
  GI50: 29.1 µM
[2]
  inhibition: 61.3%
HEK293
  GI50: 31.4 µM

## c1ccc2ncc(Nc3nc(N4CCOCC4)c4nc[nH]c4n3)cc2c1
HT-29 [1]
  GI50: 25.1 µM
[2]
  inhibition: 63.1%
HEK293
  GI50: 22.3 µM

## NC(=O)Nc1cc(-c2cccc(F)c2)sc1C(=O)N[C@H]1CCCNC1 [AZD-7762]
HT-29 [1]
  GI50: 0.167 µM
HEK293
  GI50: 0.236 µM

## COc1ccc(Nc2nc(N3CCOCC3)c3cc[nH]c3n2)cc1
HT-29 [1]
  GI50: 38.4 µM
[2]
  inhibition: 16.7%
HEK293
  GI50: 63.6 µM

## Clc1cccc(Nc2nc(N3CCOCC3)c3nc[nH]c3n2)c1
HT-29 [1]
  GI50: 34.8 µM
[2]
  inhibition: 77.3%
HEK293
  GI50: 38.4 µM
[3]
  pIC50: 5.55

## c1cnc(Nc2nc(N3CCOCC3)c3nc[nH]c3n2)cn1
HT-29 [1]
  GI50: > 100 µM
[2]
  inhibition: 38.2%
HEK293
  GI50: 27.2 µM

## NC(=O)c1ccc(Nc2nc(N3CCOCC3)c3nc[nH]c3n2)cn1
HT-29 [1]
  GI50: 72.2 µM
[2]
  inhibition: 80.3%
HEK293
  GI50: 72.2 µM
[3]
  pIC50: 5.01

## c1cncc(Nc2nc(N3CCOCC3)c3nc[nH]c3n2)c1
HT-29 [1]
  GI50: > 100 µM
[2]
  inhibition: 82.2%
HEK293
  GI50: 33.7 µM
[3]
  pIC50: 5.09

## COc1cccc(Nc2nc(N3CCOCC3)c3nc[nH]c3n2)c1
HT-29 [1]
  GI50: 72.6 µM
[2]
  inhibition: 84.9%
HEK293
  GI50: 38.7 µM
[3]
  pIC50: 5.44

## N#Cc1cnc(Nc2cc(NC[C@H]3CNCCO3)c(C(F)(F)F)cn2)cn1 [SRA-737]
HT-29 [1]
  GI50: 9.22 µM
HEK293
  GI50: 1.39 µM

## O=C(Nc1cccc(Nc2nc(N3CCOCC3)c3nc[nH]c3n2)c1)C(F)(F)F
HT-29 [1]
  GI50: 58 µM
[2]
  inhibition: 50%
HEK293
  GI50: 73.6 µM

## COc1ccc(Nc2nc(N3CCOCC3)c3nc[nH]c3n2)cc1
HT-29 [1]
  GI50: 74.5 µM
[2]
  inhibition: 51%
HEK293
  GI50: > 100 µM

## c1ccc(Nc2nc(N3CCOCC3)c3cc[nH]c3n2)cc1
HT-29 [1]
  GI50: 58.3 µM
[2]
  inhibition: 44.5%
HEK293
  GI50: 64.7 µM

## COc1cc(Nc2nc(N3CCOCC3)c3nc[nH]c3n2)cc(OC)c1OC
HT-29 [1]
  GI50: > 100 µM
[2]
  inhibition: 35.8%
HEK293
  GI50: > 100 µM

## FC(F)(F)Oc1cccc(Nc2nc(N3CCOCC3)c3nc[nH]c3n2)c1
HT-29 [1]
  GI50: > 100 µM
[2]
  inhibition: 31.6%
HEK293
  GI50: > 100 µM

## c1ccc(Nc2nc(N3CCOCC3)c3sccc3n2)cc1
HT-29 [1]
  GI50: 54.5 µM
HEK293
  GI50: > 100 µM

## COc1ccc(Nc2nc(N3CCOCC3)c3sccc3n2)cc1
HT-29 [1]
  GI50: 29.7 µM
HEK293
  GI50: > 100 µM

## Nc1ccn([C@@H]2O[C@H](CO)[C@@H](O)C2(F)F)c(=O)n1 [GEMCITABINE]
HT-29 [4]
  Activity: 4.3%
HT-29 [5]
  Activity: 10.5%
HT-29 [6]
  Activity: 85.2%

## Fc1cccc(Nc2nc(N3CCOCC3)c3nc[nH]c3n2)c1
HT-29 [1]
  GI50: 60.8 µM
[2]
  inhibition: 92%
HEK293
  GI50: 33.7 µM
[3]
  pIC50: 5.44

## COc1cc(Nc2nc(N3CCOCC3)c3sccc3n2)cc(OC)c1OC
HT-29 [1]
  GI50: 31.6 µM
HEK293
  GI50: > 100 µM

## COc1ccccc1Nc1nc(N2CCOCC2)c2nc[nH]c2n1
HT-29 [1]
  GI50: > 100 µM
[2]
  inhibition: 3.8%
HEK293
  GI50: > 100 µM
